The source of these data is patent US9221756B2, “Pyrrole derivatives” (priority 2011, dated 2015).

The target of this assay is pneumolysin (Streptococcus pneumoniae serotype 2, UniProt Q04IN8). The assay can be described thus: Inhibition of the haemolytic activity of pneumolysin (sheep erythrocytes). It is filed as cell-based. The note with it: IC50, inhibition of pneumolysin-induced haemolysis of sheep erythrocytes; class symbols of Table 1.
pneumolysin, sequence (Q04IN8 whole entry): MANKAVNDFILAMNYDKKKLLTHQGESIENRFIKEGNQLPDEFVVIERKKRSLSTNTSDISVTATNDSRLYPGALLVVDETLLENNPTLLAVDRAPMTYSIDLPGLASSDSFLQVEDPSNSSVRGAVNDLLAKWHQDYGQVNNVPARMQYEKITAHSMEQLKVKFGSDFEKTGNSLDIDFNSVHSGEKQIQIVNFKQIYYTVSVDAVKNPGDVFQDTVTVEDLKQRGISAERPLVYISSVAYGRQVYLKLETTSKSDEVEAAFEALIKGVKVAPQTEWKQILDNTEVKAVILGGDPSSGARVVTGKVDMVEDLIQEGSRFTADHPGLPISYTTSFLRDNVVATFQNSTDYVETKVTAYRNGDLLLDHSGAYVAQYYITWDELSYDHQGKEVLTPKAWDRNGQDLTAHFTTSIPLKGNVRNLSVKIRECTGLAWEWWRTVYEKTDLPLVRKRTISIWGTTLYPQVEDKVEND
Turning to `COc1ccc(-n2c(C(=O)N(C)C)c(OC(=O)C(C)(C)COCCOCCOP(=O)(O)O)c(OC(=O)C(C)(C)COCCOCCOP(=O)(O)O)c2C(=O)N(C)C)cc1` [UL1-121, 2,5-bis(dimethylcarbamoyl)-1-(4-methoxyphenyl)-1H-pyrrole-3,4-diyl bis(2,2-dimethyl-3-(2-(2-(phosphonooxy)ethoxy)ethoxy)propanoate)], the concentration for half-maximal inhibition (IC50) (in general, the midpoint of a concentration-inhibition curve) lay within 10 to 20 µM.
Then `COc1ccc(-n2c(C(=O)OC(C)C)c(OC(=O)C(C)(C)COCCOCCOP(=O)(O)O)c(OC(=O)C(C)(C)COCCOCCOP(=O)(O)O)c2C(=O)N(C)C)cc1` [UL1-122, 2-(dimethylcarbamoyl)-5-(isopropoxycarbonyl)-1-(4-methoxyphenyl)-1H-pyrrole-3,4-diyl bis(2,2-dimethyl-3-(2-(2-(phosphonooxy)ethoxy)ethoxy)propanoate)], with below 10 µM; and `COc1ccc(-n2c(C(=O)N(C)C)c(OC(=O)C3CCNCC3)c(OC(=O)C3CCNCC3)c2C(=O)N(C)C)cc1` [UL1-123, 2,5-bis(dimethylcarbamoyl)-1-(4-methoxyphenyl)-1H-pyrrole-3,4-diyl bis(piperidine-4-carboxylate)], with below 10 µM; and `COc1ccc(-n2c(C(=O)N(C)C)c(OC(=O)c3ccc(COP(=O)(O)O)cc3)c(OC(=O)c3ccc(COP(=O)(O)O)cc3)c2C(=O)N(C)C)cc1` [UL1-124, 2,5-bis(dimethylcarbamoyl)-1-(4-methoxyphenyl)-1H-pyrrole-3,4-diyl bis(4-((phosphonooxy)methyl)benzoate)], with below 10 µM.
Under `COc1ccc(-n2c(C(=O)N(C)C)c(O)c(O)c2P(C)(C)=O)cc1` [UL1-125, 5-(dimethylphosphoryl)-3,4-dihydroxy-1-(4-methoxyphenyl)-N,N-dimethyl-1H-pyrrole-2-carboxamide] stands below 10 µM.
Regarding `COc1ccc(-n2c(C(=O)N(C)C)c(OC(=O)[C@H]3CC[C@H](COP(=O)(O)O)CC3)c(OC(=O)[C@H]3CC[C@H](COP(=O)(O)O)CC3)c2C(=O)N(C)C)cc1` [UL1-126, (1R,1′R,4R,4′R)-2,5-bis(dimethylcarbamoyl)-1-(4-methoxyphenyl)-1H-pyrrole-3,4-diyl bis(4-((phosphonooxy)methyl)cyclohexanecarboxylate)], the half-maximal inhibitory concentration (IC50) was below 10 µM.
Under `CCOC(=O)c1c(O)c(O)c(C(=O)OCC)n1-c1ccccc1` [UL2-002, diethyl 3,4-dihydroxy-1-phenyl-1H-pyrrole-2,5-dicarboxylate] stands below 10 µM; under `CCOC(=O)c1c(O)c(O)c(C(=O)OCC)n1-c1ccc(F)cc1` [UL2-003, diethyl 1-(4-fluorophenyl)-3,4-dihydroxy-1H-pyrrole-2,5-dicarboxylate], 10 to 20 µM.
Under `CCOC(=O)c1c(O)c(O)c(C(=O)OCC)n1-c1cccc(OC)c1` [UL2-004, diethyl 3,4-dihydroxy-1-(3-methoxyphenyl)-1H-pyrrole-2,5-dicarboxylate] stands 10 to 20 µM; under `CCOC(=O)c1c(O)c(O)c(C(=O)OCC)n1-c1ccc(OC(F)(F)F)cc1` [UL2-005, diethyl 3,4-dihydroxy-1-(4-(trifluoromethoxy)phenyl)-1H-pyrrole-2,5-dicarboxylate], below 10 µM; under `CCOC(=O)c1c(O)c(O)c(C(=O)OCC)n1-c1ccc(C(C)C)cc1` [UL2-006, diethyl 3,4-dihydroxy-1-(4-isopropylphenyl)-1H-pyrrole-2,5-dicarboxylate], below 10 µM.
Then `CCOC(=O)c1c(O)c(O)c(C(=O)OCC)n1-c1ccc(Oc2ccccc2)cc1` [UL2-007, diethyl 3,4-dihydroxy-1-(4-phenoxyphenyl)-1H-pyrrole-2,5-dicarboxylate], with below 10 µM; and `CCOC(=O)c1c(O)c(O)c(C(=O)OCC)n1-c1ccc(OCC)cc1` [UL2-008, diethyl 1-(4-ethoxyphenyl)-3,4-dihydroxy-1H-pyrrole-2,5-dicarboxylate], with below 10 µM.
`CCOC(=O)c1c(O)c(O)c(C(=O)OCC)n1-c1ccc(CC)cc1` [UL2-009, diethyl 1-(4-ethylphenyl)-3,4-dihydroxy-1H-pyrrole-2,5-dicarboxylate] showed an IC50 below 10 µM.
Consider `CCOC(=O)c1c(O)c(O)c(C(=O)OCC)n1-c1ccc(C)cc1` [UL2-010, diethyl 3,4-dihydroxy-1-(p-tolyl)-1H-pyrrole-2,5-dicarboxylate], for which the IC50 is below 10 µM.
Then `CCOC(=O)c1c(O)c(O)c(C(=O)OCC)n1-c1ccc(OC)c(OC)c1` [UL2-011, diethyl 1-(3,4-dimethoxyphenyl)-3,4-dihydroxy-1H-pyrrole-2,5-dicarboxylate], with below 10 µM.
Then `CCOC(=O)c1c(O)c(O)c(C(=O)OCC)n1-c1ccc(Cl)cc1` [UL2-012, diethyl 1-(4-chlorophenyl)-3,4-dihydroxy-1H-pyrrole-2,5-dicarboxylate], with below 10 µM.
Under `CCOC(=O)c1c(O)c(O)c(C(=O)OCC)n1-c1ccc(C(F)(F)F)cc1` [UL2-013, diethyl 3,4-dihydroxy-1-(4-(trifluoromethyl)phenyl)-1H-pyrrole-2,5-dicarboxylate] stands below 10 µM.
On to `CCOC(=O)c1c(O)c(O)c(C(=O)OCC)n1-c1cc(OC)c(OC)c(OC)c1` [UL2-014, diethyl 3,4-dihydroxy-1-(3,4,5-trimethoxyphenyl)-1H-pyrrole-2,5-dicarboxylate], for which the IC50 was below 10 µM.
Then `CCOC(=O)c1c(O)c(O)c(C(=O)OCC)n1-c1ccc(OC)cc1OC` [UL2-015, diethyl 1-(2,4-dimethoxyphenyl)-3,4-dihydroxy-1H-pyrrole-2,5-dicarboxylate], with below 10 µM; and `CCCOc1ccc(-n2c(C(=O)OCC)c(O)c(O)c2C(=O)OCC)cc1` [UL2-016, diethyl 3,4-dihydroxy-1-(4-propoxyphenyl)-1H-pyrrole-2,5-dicarboxylate], with below 10 µM; and `CCOC(=O)c1c(O)c(O)c(C(=O)OCC)n1-c1cc(F)c(OCC)c(F)c1` [UL2-017, diethyl 1-(4-ethoxy-3,5-difluorophenyl)-3,4-dihydroxy-1H-pyrrole-2,5-dicarboxylate], with below 10 µM.
In turn, `CCOC(=O)c1c(O)c(O)c(C(=O)OCC)n1-c1cccc(Oc2ccccc2)c1` [UL2-018, diethyl 3,4-dihydroxy-1-(3-phenoxyphenyl)-1H-pyrrole-2,5-dicarboxylate] gave a concentration for half-maximal inhibition (IC50) below 10 µM.
Turning to `CCOC(=O)c1c(O)c(O)c(C(=O)OCC)n1-c1ccc2c(c1)OCO2` [UL2-019, diethyl 1-(benzo[d][1,3]dioxol-5-yl)-3,4-dihydroxy-1H-pyrrole-2,5-dicarboxylate], the IC50 fell in the range of 20 to 60 µM.
Then `COc1ccc(-n2c(C(=O)OC(C)C)c(O)c(O)c2C(=O)OC(C)C)cc1` [UL2-020, diisopropyl 3,4-dihydroxy-1-(4-methoxyphenyl)-1H-pyrrole-2,5-dicarboxylate], with below 10 µM.
`CCOC(=O)c1c(O)c(O)c(C(=O)OC(C)C)n1-c1ccc(OC)cc1` [UL2-021, 2-ethyl 5-isopropyl 3,4-dihydroxy-1-(4-methoxyphenyl)-1H-pyrrole-2,5-dicarboxylate] gave an IC50 below 10 µM.
Under `COc1ccc(-n2c(C(=O)OC(C)(C)C)c(O)c(O)c2C(=O)OC(C)(C)C)cc1` [UL2-022, di-tert-butyl 3,4-dihydroxy-1-(4-methoxyphenyl)-1H-pyrrole-2,5-dicarboxylate] stands below 10 µM; under `CCOC(=O)c1c(O)c(O)c(C(=O)OCC)n1-c1ccccc1OC` [UL2-023, diethyl 3,4-dihydroxy-1-(2-methoxyphenyl)-1H-pyrrole-2,5-dicarboxylate], 20 to 60 µM; under `CCOC(=O)c1c(O)c(O)c(C(=O)OCC)n1-c1ccc(C#N)cc1` [UL2-024, diethyl 1-(4-cyanophenyl)-3,4-dihydroxy-1H-pyrrole-2,5-dicarboxylate], 10 to 20 µM.
Turning to `CCOC(=O)c1c(O)c(OCCO)c(C(=O)OCC)n1-c1ccc(F)cc1` [UL2-025, diethyl 1-(4-fluorophenyl)-3-hydroxy-4-(2-hydroxyethoxy)-1H-pyrrole-2,5-dicarboxylate], the IC50 fell in the range of 20 to 60 µM.
Under `CCOC(=O)c1c(O)c(OCCO)c(C(=O)OCC)n1-c1ccc(OC)cc1` [UL2-026, diethyl 3-hydroxy-4-(2-hydroxyethoxy)-1-(4-methoxyphenyl)-1H-pyrrole-2,5-dicarboxylate] stands 20 to 60 µM.
Regarding `CCOC(=O)c1c(O)c(OCC(=O)OC(C)(C)C)c(C(=O)OCC)n1-c1ccc(F)cc1` [UL2-027, diethyl 3-(2-(tert-butoxy)-2-oxoethoxy)-1-(4-fluorophenyl)-4-hydroxy-1H-pyrrole-2,5-dicarboxylate], the half-maximal inhibitory concentration (IC50) was in the range of 10 to 20 µM.
Regarding `CCOC(=O)c1c(OCC(=O)OC(C)(C)C)c(OCc2ccccc2)c(C(=O)OCC)n1-c1ccc(OC)cc1` [UL2-028, diethyl 3-(benzyloxy)-4-(2-(tert-butoxy)-2-oxoethoxy)-1-(4-methoxyphenyl)-1H-pyrrole-2,5-dicarboxylate], the half-inhibitory concentration (IC50) lay within 20 to 60 µM.
Under `CCOC(=O)c1c(O)c(OCC(N)=O)c(C(=O)OCC)n1-c1ccc(F)cc1` [UL2-029, diethyl 3-(2-amino-2-oxoethoxy)-1-(4-fluorophenyl)-4-hydroxy-1H-pyrrole-2,5-dicarboxylate] stands 20 to 60 µM; under `CCOC(=O)c1c(O)c(OCC(=O)OC(C)(C)C)c(C(=O)OCC)n1-c1ccc(OC)cc1` [UL2-030, diethyl 3-(2-(tert-butoxy)-2-oxoethoxy)-4-hydroxy-1-(4-methoxyphenyl)-1H-pyrrole-2,5-dicarboxylate], 10 to 20 µM; under `CCOC(=O)c1c(O)c(OCC(N)=O)c(C(=O)OCC)n1-c1ccc(OC)cc1` [UL2-031, diethyl 3-(2-amino-2-oxoethoxy)-4-hydroxy-1-(4-methoxyphenyl)-1H-pyrrole-2,5-dicarboxylate], 20 to 60 µM.
`CCOC(=O)c1c(O)c(O)c(C(=O)OCC)n1-c1ccc(C(C)(C)C)cc1` [UL2-032, diethyl 1-(4-(tert-butyl)phenyl)-3,4-dihydroxy-1H-pyrrole-2,5-dicarboxylate] returned a concentration for half-maximal inhibition (IC50) below 10 µM.
Under `CCOC(=O)c1c(O)c(O)c(C(=O)OCC)n1-c1ccc(OC)c(I)c1` [UL2-033, diethyl 3,4-dihydroxy-1-(3-iodo-4-methoxyphenyl)-1H-pyrrole-2,5-dicarboxylate] stands below 10 µM.
